Data reported in patent publication US11006630B2, “Stable suspension concentrate formulation for water-soluble compounds” (FMC Corporation, priority 2006, dated 2021).

Test: Solubility of N-cyanomethyl-4-(trifluoromethyl)nicotinamide in salt solutions (HPLC of filtrate)
Assay type: physicochemical
Details: for Amount of N-cyanomethyl-4-(trifluoromethyl)nicotinamide in Salt Solutions After Filtration: about 18 hours at ambient temperature
Method: In order to determine the effectiveness of a salt to decrease the solubility of N-cyanomethyl-4-(trifluoromethyl)nicotinamide in aqueous solutions, the following tests were conducted:
A salt solution consisting of two grams of a salt dissolved in ten grams of water was prepared. Fifty milligrams of N-cyanomethyl-4-(trifluoromethyl)nicotinamide was added and the resulting mixture was subjected to sonication until all the N-cyanomethyl-4-(trifluoromethyl)nicotinamide had dissolved. The solutions were allowed to stand at ambient temperature for about 18 hours. Each solution was filtered and the filtrate was analyzed by HPLC to determine the amount of N-cyanomethyl-4-(trifluoromethyl)nicotinamide which remained dissolved in the water. An experiment in which no salt was added was included as a control.

## N#CCNC(=O)c1cnccc1C(F)(F)F [N-cyanomethyl-4-(trifluoromethyl)nicotinamide]
Control, no salt, 50 mg added to 10 g water
  Amount of N-cyanomethyl-4-(trifluoromethyl)nicotinamide in Salt Solutions After Filtration: 50.0 mg
Magnesium Sulfate (Anhydrous), 2 g in 10 g water, 50 mg added
  Amount of N-cyanomethyl-4-(trifluoromethyl)nicotinamide in Salt Solutions After Filtration: 7.0 mg
Sodium Sulfate, 2 g in 10 g water, 50 mg added
  Amount of N-cyanomethyl-4-(trifluoromethyl)nicotinamide in Salt Solutions After Filtration: 10.0 mg
Concentration of 20% magnesium sulfate
  Reduction of solubility in an aqueous solution: over 90%
Sodium sulfate
  Reduction of solubility in an aqueous solution: 80%
